Assay [1] has as its target T1, FLT3-ITD (Homo sapiens, UniProt P36888, ITD).
T1 sequence (P36888 27-993): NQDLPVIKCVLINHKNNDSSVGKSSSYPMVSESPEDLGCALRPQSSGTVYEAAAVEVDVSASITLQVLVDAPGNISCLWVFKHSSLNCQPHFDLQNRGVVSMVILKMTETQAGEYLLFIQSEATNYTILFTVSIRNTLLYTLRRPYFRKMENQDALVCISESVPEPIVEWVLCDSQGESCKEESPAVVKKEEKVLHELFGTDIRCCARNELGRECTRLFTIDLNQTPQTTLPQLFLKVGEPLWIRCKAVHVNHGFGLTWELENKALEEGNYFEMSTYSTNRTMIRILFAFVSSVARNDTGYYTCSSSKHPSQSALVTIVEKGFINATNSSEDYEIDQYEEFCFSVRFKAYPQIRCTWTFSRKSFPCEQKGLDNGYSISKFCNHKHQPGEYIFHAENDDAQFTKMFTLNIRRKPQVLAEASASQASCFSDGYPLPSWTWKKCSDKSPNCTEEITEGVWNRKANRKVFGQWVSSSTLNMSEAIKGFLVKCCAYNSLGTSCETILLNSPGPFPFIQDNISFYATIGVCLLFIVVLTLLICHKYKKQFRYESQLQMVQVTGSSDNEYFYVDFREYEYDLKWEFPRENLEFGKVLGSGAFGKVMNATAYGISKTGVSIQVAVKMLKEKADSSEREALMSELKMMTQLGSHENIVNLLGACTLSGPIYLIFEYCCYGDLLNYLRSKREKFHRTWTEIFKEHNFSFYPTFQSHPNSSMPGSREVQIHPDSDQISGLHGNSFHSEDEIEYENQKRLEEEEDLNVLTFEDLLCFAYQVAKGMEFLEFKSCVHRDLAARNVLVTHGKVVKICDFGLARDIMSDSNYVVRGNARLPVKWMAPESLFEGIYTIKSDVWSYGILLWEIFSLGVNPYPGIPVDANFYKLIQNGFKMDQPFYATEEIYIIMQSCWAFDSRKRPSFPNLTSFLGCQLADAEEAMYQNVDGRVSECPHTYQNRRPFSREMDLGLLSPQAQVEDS
The experiment in a line: Microscale thermophoresis (MST) binding affinity. Particulars: 50 mM Tris, 230 mM NaCl, pH 7.0, labeled protein 50 nM. On the procedure:
The protein was labeled with a fluorescence tag utilizing a Lys Labeling Kit (NanoTemper), with a final concentration of 50 nM being achieved. Adhering to the manufacturer’s guidelines, the compounds were titrated from an initial concentration of 12.5 μM with a 1:1 dilution ratio. Next, each sample was centrifuged at 15,000 rpm for 5 min, followed by loading into standard glass capillaries for MST analysis.
A general note: MST reads how a fluorescent partner responds to local heating, with and without ligand.

Assay [2] deals with T1, FLT3-ITD. Kind of assay: ADP-Glo kinase-inhibition assay. In kind it is biochemical. Particulars: ADP-Glo; ATP 100 μM; FLT3-ITD 10 ng/μL. How it is done: (§1) Subsequently, the kinase detection reagent was added and incubated for an additional 15 min. Finally, the mixture was incubated for 1 h, and relative luminescence units (RLU) were measured.
(§2) Moreover, we extended the kinase selectivity profiling of FLIN-4 to evaluate its inhibitory activity against 60 non-target kinases.
Background: ADP-Glo first removes unused ATP, then detects ADP through luciferase.

The subject of assay [3] is FLT3-ITD. Kind of assay: ADP-Glo kinase-inhibition assay. The conditions noted are these: ratio of IC50 values vs Midostaurin. In kind it is biochemical. On the procedure: as §1, §2
The test system of the next assay is MV4-11 cells. The experiment in a line: MTT anti-proliferation assay, MV4-11. The conditions noted are these: Homo sapiens, 72-h treatment. In kind it is cell-based. How it is done:
In addition, the normal hematopoietic cell line was COLO 829BL from ATCC. The cells were maintained in RPMI-1640 medium supplemented with 10% FBS, and 1% penicillin and streptomycin. The cells were cultured in an incubator at 37°C with 5% CO2. […] The high-performance liquid chromatography (HPLC) spectra data for each compound are provided in the (Supplementary Figures S1–S6).
(§3) The effects of the test compounds on MV4-11, NB4, and COLO 829BL cell lines were quantitatively evaluated according to the methods previously reported ([Zhou et al., 2022]).
On the technique in general: Tetrazolium dyes change colour on reduction, which living cells bring about.

Another assay has as its system NB4 cells. The experiment in a line: MTT assay, NB4 (FLT3 wild-type). Type of assay: cell-based. Particulars: 2–64 μM.
Excerpt: The human AML cell line MV4-11, which bears exclusive FLT3-ITD mutation genes, was purchased from the American Type Culture Collection (ATCC, Manassas, VA, United States), and the AML cell line NB4, a FLT3-wildtype cell line, was obtained from the China Center for Type Culture Collection (CCTCC, Wuhan, China). In addition, the normal hematopoietic cell line was COLO 829BL from ATCC. The cells were maintained in RPMI-1640 medium supplemented with 10% FBS, and 1% penicillin and streptomycin. The cells were cultured in an incubator at 37°C with 5% CO2. […] The high-performance liquid chromatography (HPLC) spectra data for each compound are provided in the (Supplementary Figures S1–S6). The FLT3-ITD mutant protein was purchased from Abcam (Cambridge, United Kingdom).
as §3
Subsequently, to further validate the specificity of FLIN-4 for cells expressing FLT3-ITD, we conducted MTT assays to assess the specificity and cytotoxicity of FLIN-4 within the concentration range of 2–64 μM on NB4 cells (harboring FLT3 wild-type) and COLO 829BL cells (representing normal hematopoietic cells). […]

A further assay concerns the target BTK (Homo sapiens, UniProt Q06187). The experiment in a line: SelectScreen kinase selectivity assay. In kind it is biochemical. The conditions noted are these: ten-dose 0.25–128 μM. How it is done: (§4) Following the standardized kinase activity assay protocol as previously reported, we utilized the SelectScreen Kinase Profiling Service (Thermo Fisher Scientific) to determine the kinase selectivity profile of FLIN-4 ([van der Wel et al., 2020]). Through a ten-dose dilution series ranging from 0.25 μM to 128 μM in dose-response experiments, we precisely measured the inhibitory effect of FLIN-4 on the substrate phosphorylation reactions catalyzed by a panel of kinases, and thus ascertained the half-maximal inhibitory concentrations (IC50) for each kinase.

Another assay addresses CSF1R (Homo sapiens, UniProt P07333). Kind of assay: SelectScreen kinase selectivity assay. In kind it is biochemical. The conditions noted are these: ten-dose 0.25–128 μM. On the procedure:
as §4

In a further assay the target is DDR1 (Homo sapiens, UniProt Q08345). Kind of assay: SelectScreen kinase selectivity assay. Type of assay: biochemical. The conditions noted are these: ten-dose 0.25–128 μM. On the procedure: as §4
The next assay has as its target FES (Homo sapiens, UniProt P07332). Kind of assay: SelectScreen kinase selectivity assay. In kind it is biochemical. Particulars: ten-dose 0.25–128 μM. How it is done:
as §4

The target in another assay is IGF1R (Homo sapiens, UniProt P08069). The experiment in a line: SelectScreen kinase selectivity assay. Particulars: ten-dose 0.25–128 μM. In kind it is biochemical. On the procedure:
as §4

The next assay concerns the target ITK (Homo sapiens, UniProt Q08881). The experiment in a line: SelectScreen kinase selectivity assay. In kind it is biochemical. Particulars: ten-dose 0.25–128 μM. On the procedure: as §4
The target of another assay is ROS1 (Homo sapiens, UniProt P08922). The experiment in a line: SelectScreen kinase selectivity assay. Type of assay: biochemical. Particulars: ten-dose 0.25–128 μM. How it is done: as §4
The target of the next assay is YES1 (Homo sapiens, UniProt P07947). The experiment in a line: SelectScreen kinase selectivity assay. Type of assay: biochemical. Particulars: ten-dose 0.25–128 μM. How it is done:
as §4

Data on one molecule can be found in publication PMC11830721 (Frontiers in Pharmacology, 2025).

Molecules are shown by their SMILES. A value given as a limit tells only on which side of the number the result lay.

BTK, sequence (Q06187 whole entry): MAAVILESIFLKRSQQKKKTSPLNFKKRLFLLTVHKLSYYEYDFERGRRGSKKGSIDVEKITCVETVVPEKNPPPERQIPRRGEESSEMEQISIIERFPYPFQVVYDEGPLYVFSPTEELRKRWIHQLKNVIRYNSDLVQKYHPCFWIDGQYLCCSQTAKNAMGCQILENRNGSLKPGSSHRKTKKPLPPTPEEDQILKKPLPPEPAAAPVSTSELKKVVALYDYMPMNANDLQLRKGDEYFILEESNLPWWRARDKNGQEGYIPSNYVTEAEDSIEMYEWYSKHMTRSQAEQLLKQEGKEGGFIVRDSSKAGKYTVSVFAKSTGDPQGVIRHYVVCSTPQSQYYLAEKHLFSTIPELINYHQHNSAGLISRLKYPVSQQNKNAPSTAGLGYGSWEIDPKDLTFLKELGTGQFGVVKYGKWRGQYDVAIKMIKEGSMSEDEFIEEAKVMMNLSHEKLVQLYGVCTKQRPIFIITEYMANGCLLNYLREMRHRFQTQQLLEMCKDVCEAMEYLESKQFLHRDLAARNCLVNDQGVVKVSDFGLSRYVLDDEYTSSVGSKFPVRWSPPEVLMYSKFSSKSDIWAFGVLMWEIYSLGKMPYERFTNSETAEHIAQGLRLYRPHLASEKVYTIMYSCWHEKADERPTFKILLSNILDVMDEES
CSF1R, sequence (P07333 20-972): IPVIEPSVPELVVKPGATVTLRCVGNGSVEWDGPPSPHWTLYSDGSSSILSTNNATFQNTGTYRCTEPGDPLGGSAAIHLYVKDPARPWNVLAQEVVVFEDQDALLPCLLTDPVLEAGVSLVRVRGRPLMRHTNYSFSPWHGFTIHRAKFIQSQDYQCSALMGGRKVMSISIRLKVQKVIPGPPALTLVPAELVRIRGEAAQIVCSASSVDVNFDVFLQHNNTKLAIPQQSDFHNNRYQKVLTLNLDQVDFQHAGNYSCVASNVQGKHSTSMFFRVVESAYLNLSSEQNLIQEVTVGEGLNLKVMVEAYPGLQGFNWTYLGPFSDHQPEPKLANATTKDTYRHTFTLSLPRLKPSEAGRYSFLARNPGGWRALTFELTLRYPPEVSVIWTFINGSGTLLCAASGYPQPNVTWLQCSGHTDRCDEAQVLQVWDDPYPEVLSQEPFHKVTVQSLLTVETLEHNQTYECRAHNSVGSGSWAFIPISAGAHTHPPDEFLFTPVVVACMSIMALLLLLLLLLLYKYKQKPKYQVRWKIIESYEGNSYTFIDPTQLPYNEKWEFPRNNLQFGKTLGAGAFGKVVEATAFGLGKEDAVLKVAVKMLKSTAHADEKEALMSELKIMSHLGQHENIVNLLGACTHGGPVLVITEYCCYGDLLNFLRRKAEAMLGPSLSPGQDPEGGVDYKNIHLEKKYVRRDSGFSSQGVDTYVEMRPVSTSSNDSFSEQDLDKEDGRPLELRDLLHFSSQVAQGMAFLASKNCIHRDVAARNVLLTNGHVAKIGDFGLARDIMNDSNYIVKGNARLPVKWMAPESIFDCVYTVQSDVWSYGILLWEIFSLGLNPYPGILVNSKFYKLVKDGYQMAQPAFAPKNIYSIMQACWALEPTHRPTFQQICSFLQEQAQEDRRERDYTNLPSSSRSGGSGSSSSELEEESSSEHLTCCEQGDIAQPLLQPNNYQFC
ITK, sequence (Q08881 whole entry): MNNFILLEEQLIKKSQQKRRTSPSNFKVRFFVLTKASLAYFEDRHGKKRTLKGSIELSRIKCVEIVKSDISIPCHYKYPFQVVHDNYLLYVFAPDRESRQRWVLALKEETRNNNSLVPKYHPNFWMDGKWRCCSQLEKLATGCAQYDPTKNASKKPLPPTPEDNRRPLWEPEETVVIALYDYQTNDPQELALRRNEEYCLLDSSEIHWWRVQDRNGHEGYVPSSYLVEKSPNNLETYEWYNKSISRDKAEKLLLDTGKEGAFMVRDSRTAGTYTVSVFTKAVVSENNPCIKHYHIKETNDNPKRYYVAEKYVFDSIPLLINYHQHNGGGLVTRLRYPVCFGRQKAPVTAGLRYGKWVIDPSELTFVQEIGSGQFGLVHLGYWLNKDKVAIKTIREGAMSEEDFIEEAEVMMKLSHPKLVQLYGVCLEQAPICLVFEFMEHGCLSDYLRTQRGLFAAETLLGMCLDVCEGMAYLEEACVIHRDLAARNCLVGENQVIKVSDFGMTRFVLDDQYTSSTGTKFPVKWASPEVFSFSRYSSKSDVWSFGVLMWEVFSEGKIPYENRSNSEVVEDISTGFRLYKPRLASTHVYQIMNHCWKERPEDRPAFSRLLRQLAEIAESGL
IGF1R, sequence (P08069 31-1367): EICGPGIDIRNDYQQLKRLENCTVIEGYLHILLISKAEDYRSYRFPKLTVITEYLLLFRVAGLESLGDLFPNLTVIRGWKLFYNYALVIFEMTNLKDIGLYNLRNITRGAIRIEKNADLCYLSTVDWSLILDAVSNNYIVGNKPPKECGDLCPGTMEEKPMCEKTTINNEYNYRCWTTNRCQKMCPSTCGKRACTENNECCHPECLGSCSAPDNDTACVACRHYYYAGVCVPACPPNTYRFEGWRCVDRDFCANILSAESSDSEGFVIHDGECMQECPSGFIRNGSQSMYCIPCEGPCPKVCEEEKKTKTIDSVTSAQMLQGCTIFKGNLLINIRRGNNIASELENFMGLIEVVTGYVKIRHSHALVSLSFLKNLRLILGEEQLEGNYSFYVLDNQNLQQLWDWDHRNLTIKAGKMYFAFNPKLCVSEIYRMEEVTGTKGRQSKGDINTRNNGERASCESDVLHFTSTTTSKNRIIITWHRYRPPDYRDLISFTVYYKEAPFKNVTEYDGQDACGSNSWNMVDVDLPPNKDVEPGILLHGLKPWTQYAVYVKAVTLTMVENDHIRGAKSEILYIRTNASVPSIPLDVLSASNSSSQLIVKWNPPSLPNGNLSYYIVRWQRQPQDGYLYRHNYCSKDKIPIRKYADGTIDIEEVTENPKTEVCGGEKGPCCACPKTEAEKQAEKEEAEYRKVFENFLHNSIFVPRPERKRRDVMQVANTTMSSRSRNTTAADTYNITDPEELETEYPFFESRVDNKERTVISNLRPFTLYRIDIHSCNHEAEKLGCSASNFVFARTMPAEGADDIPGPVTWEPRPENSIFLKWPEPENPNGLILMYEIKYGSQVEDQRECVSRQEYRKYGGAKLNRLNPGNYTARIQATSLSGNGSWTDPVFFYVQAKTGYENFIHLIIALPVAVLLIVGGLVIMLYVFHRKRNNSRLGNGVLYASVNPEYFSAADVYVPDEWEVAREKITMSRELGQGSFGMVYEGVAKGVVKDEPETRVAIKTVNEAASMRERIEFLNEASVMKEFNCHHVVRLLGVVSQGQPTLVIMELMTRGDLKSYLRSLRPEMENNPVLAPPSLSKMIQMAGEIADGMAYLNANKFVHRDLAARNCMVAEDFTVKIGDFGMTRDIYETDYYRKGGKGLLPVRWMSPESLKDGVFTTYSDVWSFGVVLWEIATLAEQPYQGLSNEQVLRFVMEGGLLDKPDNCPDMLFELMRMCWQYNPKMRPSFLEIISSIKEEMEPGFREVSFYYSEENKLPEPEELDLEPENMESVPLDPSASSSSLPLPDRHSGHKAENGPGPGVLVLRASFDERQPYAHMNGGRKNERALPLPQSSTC
FES, sequence (P07332 whole entry): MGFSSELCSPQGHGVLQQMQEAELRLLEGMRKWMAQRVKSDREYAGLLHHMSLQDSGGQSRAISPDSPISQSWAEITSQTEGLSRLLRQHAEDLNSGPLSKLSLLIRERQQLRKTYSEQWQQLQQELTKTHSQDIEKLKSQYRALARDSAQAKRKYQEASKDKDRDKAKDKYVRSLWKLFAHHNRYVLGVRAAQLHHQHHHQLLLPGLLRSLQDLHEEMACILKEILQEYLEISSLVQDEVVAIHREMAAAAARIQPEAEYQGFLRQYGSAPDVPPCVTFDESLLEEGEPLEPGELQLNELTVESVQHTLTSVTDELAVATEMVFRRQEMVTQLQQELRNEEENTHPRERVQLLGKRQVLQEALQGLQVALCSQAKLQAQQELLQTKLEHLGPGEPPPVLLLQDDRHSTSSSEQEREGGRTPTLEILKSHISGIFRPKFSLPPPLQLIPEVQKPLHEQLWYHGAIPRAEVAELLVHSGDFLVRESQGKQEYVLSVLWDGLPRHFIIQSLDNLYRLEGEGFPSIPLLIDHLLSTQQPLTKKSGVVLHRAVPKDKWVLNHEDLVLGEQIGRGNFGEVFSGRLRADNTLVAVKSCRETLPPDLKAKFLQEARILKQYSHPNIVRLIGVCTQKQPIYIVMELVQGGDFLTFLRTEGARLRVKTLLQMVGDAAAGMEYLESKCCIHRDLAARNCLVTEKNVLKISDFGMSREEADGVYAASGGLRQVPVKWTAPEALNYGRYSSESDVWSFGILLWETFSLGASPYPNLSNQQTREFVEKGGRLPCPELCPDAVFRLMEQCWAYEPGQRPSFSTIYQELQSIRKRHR
YES1, sequence (P07947 whole entry): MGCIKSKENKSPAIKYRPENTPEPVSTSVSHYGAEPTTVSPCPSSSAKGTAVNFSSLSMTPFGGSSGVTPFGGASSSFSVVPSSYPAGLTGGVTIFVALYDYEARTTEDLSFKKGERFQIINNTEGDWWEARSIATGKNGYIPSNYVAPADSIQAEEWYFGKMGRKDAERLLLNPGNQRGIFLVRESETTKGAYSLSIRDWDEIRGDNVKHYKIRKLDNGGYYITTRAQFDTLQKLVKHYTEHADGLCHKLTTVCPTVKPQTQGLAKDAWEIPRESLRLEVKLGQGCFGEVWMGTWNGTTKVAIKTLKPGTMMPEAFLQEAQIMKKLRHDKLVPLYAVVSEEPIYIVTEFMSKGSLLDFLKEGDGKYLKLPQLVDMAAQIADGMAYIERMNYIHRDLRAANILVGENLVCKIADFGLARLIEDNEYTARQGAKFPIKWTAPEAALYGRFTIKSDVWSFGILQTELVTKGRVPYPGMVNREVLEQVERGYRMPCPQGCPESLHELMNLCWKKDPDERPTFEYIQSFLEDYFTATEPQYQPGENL

By Kd is commonly meant the concentration at which binding is half-saturated. Low values mean a tighter complex, high ones a looser complex. As usually defined, the IC50 is the midpoint of a concentration-inhibition curve. On to `CCc1nc(C(N)=O)c(Nc2ccc(N3CCC(Nc4ccccc4)CC3)c(OC)c2)nc1NC1CCOC(C(O)CO)C1` (stereo not shown) [FLIN-4], for which the dissociation constant (Kd) on FLT3-ITD [1] was 0.00095 ± 6e-05 µM. Moreover, the IC50 against FLT3-ITD [2] was 0.00107 ± 4e-05 µM; with MV4-11 cells it was 0.00131 ± 6e-05 µM; at BTK it was more than 10 µM; on CSF1R, more than 10 µM; against DDR1 it was more than 10 µM; at FES it was more than 10 µM. For the same molecule, the IC50 against IGF1R, at ITK, on ROS1 and against YES1 was more than 10 µM in each case. Moreover, the “FLT3-ITD inhibitory potency relative to Midostaurin” value in the assay on FLT3-ITD [3] was “approximately 27 times”. Besides, in the assay with NB4 cells, the “Survival rate of NB4 cells” value is “did not induce any significant changes in the survival rates”.
